Laboratory results from ChEMBL document CHEMBL4184248, “A multicomponent approach in the discovery of indoleamine 2,3-dioxygenase 1 inhibitors: Synthesis, biological investigation and docking studies” (Bioorg Med Chem Lett, 2018).

What was measured:
[1] = biological target: T1, Indoleamine 2,3-dioxygenase 1 (Homo sapiens, UniProt P14902); experiment: Inhibition of human recombinant IDO1 assessed as reduction in kynurenine production at 1 uM using L-tryptophan incubated for 60 mins by Ehrlich's reagent based assay
Target sequence in this assay (P14902 whole entry, looked up): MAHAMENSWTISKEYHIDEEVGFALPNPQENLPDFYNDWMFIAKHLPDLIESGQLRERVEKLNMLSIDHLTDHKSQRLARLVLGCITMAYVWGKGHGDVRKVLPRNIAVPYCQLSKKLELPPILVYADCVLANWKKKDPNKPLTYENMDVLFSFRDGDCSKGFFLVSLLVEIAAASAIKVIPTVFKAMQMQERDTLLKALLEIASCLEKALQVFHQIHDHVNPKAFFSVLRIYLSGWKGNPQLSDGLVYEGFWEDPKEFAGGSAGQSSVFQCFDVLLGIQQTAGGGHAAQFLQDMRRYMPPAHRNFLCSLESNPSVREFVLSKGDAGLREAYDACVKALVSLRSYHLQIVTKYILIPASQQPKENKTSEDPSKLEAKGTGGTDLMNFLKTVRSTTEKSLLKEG

[2] = biological target: T1, Indoleamine 2,3-dioxygenase 1; experiment: Inhibition of human recombinant IDO1 assessed as reduction in kynurenine production using L-tryptophan incubated for 60 mins by Ehrlich's reagent based assay
Target sequence in this assay (P14902 whole entry): as the sequence (P14902 whole entry, looked up) above

A-375 = experiment: Cytotoxicity in human A375 cells assessed as cell viability at 10 uM incubated for 48 hrs by MTT assay; assay type: functional; conditions: A-375, 48 h, read-out: Activity

Row | SMILES | inhibition [1] | IC50 [2] | viability at 10 µM (A-375)
1 | CN(CC(=O)NCc1cnc2scc(-c3ccc(Br)cc3)n12)C(=O)Cc1cccc(O)c1 | 63% | 450 nM | 100%
2 | CN(CC(=O)NCc1cnc2scc(-c3ccc(Br)cc3)n12)C(=O)c1ccc(C#N)cc1 | 47% |  | 87%
3 | O=C(CNC(=O)Cc1ccccc1)NCc1cnc2scc(-c3ccc(Br)cc3)n12 | 46% |  | 100%
4 | CN(CC(=O)NCc1cnc2scc(-c3ccc(Br)cc3)n12)C(=O)Cc1cccc(C#N)c1 | 0% |  | 90%
5 | O=C(CO)NCc1cnc2scc(-c3ccc(Br)cc3)n12 | 48% |  | 97%
6 | N#Cc1cccc(CC(=O)OCC(=O)NCc2cnc3scc(-c4ccc(Br)cc4)n23)c1 | 29% |  | 97%
7 | CN(CC(=O)NCc1cnc2scc(-c3ccc(Br)cc3)n12)C(=O)Cc1ccc(Cl)cc1 | 51% |  | 64%
8 | CN(CC(=O)NCc1cnc2scc(-c3ccc(Br)cc3)n12)C(=O)c1ccc([N+](=O)[O-])cc1 | 45% |  | 100%
9 | COc1cccc(C(=O)N(C)CC(=O)NCc2cnc3scc(-c4ccc(Br)cc4)n23)c1 | 48% |  | 98%
10 | Cn1cc(C[C@H](N)C(=O)O)c2ccccc21 [(L)-1-METHYLTRYPTOPHAN] |  |  | 100%
11 | CN(CC(=O)NCc1cnc2scc(-c3ccc(Br)cc3)n12)C(=O)Cc1cccc(Cl)c1 | 39% |  | 83%
12 | O=C(COC(=O)Cc1ccc([N+](=O)[O-])cc1)NCc1cnc2scc(-c3ccc(Br)cc3)n12 | 39% |  | 100%
13 | COc1ccc(C(=O)N(C)CC(=O)NCc2cnc3scc(-c4ccc(Br)cc4)n23)cc1 | 49% |  | 82%
14 | O=C(COC(=O)Cc1ccccc1Cl)NCc1cnc2scc(-c3ccc(Br)cc3)n12 | 46% |  | 100%
15 | O=C(COC(=O)Cc1cccc([N+](=O)[O-])c1)NCc1cnc2scc(-c3ccc(Br)cc3)n12 | 50% |  | 100%
16 | O=C(COC(=O)Cc1ccc(O)cc1)NCc1cnc2scc(-c3ccc(Br)cc3)n12 | 89% | 200 nM | 100%
17 | CN(CC(=O)NCc1cnc2scc(-c3ccc(Br)cc3)n12)C(=O)Cc1ccc(O)cc1 | 55% |  | 91%
18 | CN(CC(=O)NCc1cnc2scc(-c3ccc(Br)cc3)n12)C(=O)Cc1ccc(C#N)cc1 | 18% |  | 92%
19 | O=C(COC(=O)Cc1ccccc1O)NCc1cnc2scc(-c3ccc(Br)cc3)n12 | 73% | 870 nM | 100%
20 | O=C(COC(=O)Cc1ccccc1[N+](=O)[O-])NCc1cnc2scc(-c3ccc(Br)cc3)n12 | 41% |  | 100%

Row | SMILES | inhibition [1] | IC50 [2] | viability at 10 µM (A-375)
21 | CN(CC(=O)NCc1cnc2scc(-c3ccc(Br)cc3)n12)C(=O)Cc1ccccc1Cl | 41% |  | 71%
22 | CN(CC(=O)NCc1cnc2scc(-c3ccc(Br)cc3)n12)C(=O)Cc1ccc(O)c(O)c1 | 34% |  | 99%
23 | CN(CC(=O)NCc1cnc2scc(-c3ccc(Br)cc3)n12)C(=O)Cc1ccccc1[N+](=O)[O-] | 67% | 730 nM | 92%
24 | N[C@H](C(=O)NCC(=O)NCc1cnc2scc(-c3ccc(Br)cc3)n12)c1ccc(O)cc1 | 0% |  | 100%
25 | N#Cc1ccc(NC(=O)NCc2cnc3scc(-c4ccc(Br)cc4)n23)cc1 | 97% | 80 nM | 99%
26 | NS(=O)(=O)NCCNc1nonc1/C(=N/O)Nc1ccc(F)c(Br)c1 [EPACADOSTAT] |  |  | 100%
27 | CN(CC(=O)NCc1cnc2scc(-c3ccc(Br)cc3)n12)C(=O)c1ccccc1 | 50% |  | 96%
28 | N#Cc1ccc(CC(=O)OCC(=O)NCc2cnc3scc(-c4ccc(Br)cc4)n23)cc1 | 69% | 340 nM | 100%
29 | CN(CC(=O)NCc1cnc2scc(-c3ccc(Br)cc3)n12)C(=O)Cc1ccc([N+](=O)[O-])cc1 | 66% | 810 nM | 100%
30 | CC(=O)N(C)CC(=O)NCc1cnc2scc(-c3ccc(Br)cc3)n12 | 21% |  | 98%
31 | CN(CC(=O)NCc1cnc2scc(-c3ccc(Br)cc3)n12)C(=O)Cc1ccccc1 | 62% | 690 nM | 100%
32 | O=C(COC(=O)Cc1ccc(Cl)cc1)NCc1cnc2scc(-c3ccc(Br)cc3)n12 | 32% |  | 100%
33 | N[C@H](C(=O)NCC(=O)NCc1cnc2scc(-c3ccc(Br)cc3)n12)c1ccccc1 | 10% |  | 96%
34 | CN(CC(=O)NCc1cnc2scc(-c3ccc(Br)cc3)n12)C(=O)Cc1cccc([N+](=O)[O-])c1 | 65% | 630 nM | 93%
35 | O=C(COC(=O)Cc1cccc(O)c1)NCc1cnc2scc(-c3ccc(Br)cc3)n12 | 59% |  | 100%
36 | O=C(COC(=O)Cc1ccccc1)NCc1cnc2scc(-c3ccc(Br)cc3)n12 | 72% | 580 nM | 98%
37 | CN(CC(=O)NCc1cnc2scc(-c3ccc(Br)cc3)n12)C(=O)Cc1ccccc1O | 0% |  | 88%
38 | O=C(COC(=O)Cc1ccc(O)c(O)c1)NCc1cnc2scc(-c3ccc(Br)cc3)n12 | 40% |  | 99%
39 | O=C(COC(=O)Cc1cccc(Cl)c1)NCc1cnc2scc(-c3ccc(Br)cc3)n12 | 39% |  | 100%
